What was measured:
Format in all cases: in vivo
C57BL/6 mice = test: Alloxan induction of diabetes, blood glucose levels by day 28; settings: one i.v. dose Alloxan 70 mg/kg, day 28, n=222
Protocol: 8-week-old female mice were I.V. injected with β cell toxin Alloxan (Sigma) at 70 mg/kg body weight. Tail vein blood glucose was measured daily or twice a week with Precision Xtra Glucose Meter (Abbott Diabetes Care Inc.) with a maximum reading of 500 mg/dL Tamoxifen (TM, Sigma) was prepared at 20 mg/mL in corn oil (Sigma). For tracing studies in adult mice, a total of 20 mg of TM was given […] in five doses (each 4 mg) over a 2-week period. Mice rendered diabetic (>300 mg/dL) over a period of 28 days were used in subsequent experiments.
This example investigates whether Sox9^+ pancreatic ductal cells could give rise to insulin-producing β cells in adult diabetic mice after GE treatment, using non-autoimmune Sox9^CreERT2R26^mT/mG C57BL/6 mice. First, a β cell neogenesis mouse model in non-autoimmune diabetic C57BL/6 mice was established. 8 week-old adult female C57BL/6 mice were induced to develop diabetes by one intravenous injection of Alloxan (70 mg/kg body weight) as previously described (14, 27). Mice developed variable levels of hyperglycemia, including mild (<300 mg/dL), medium (300-450 mg/dL) and high hyperglycemia (>450 mg/dL). C57BL/6 mice (n=222) were induced to render diabetic by intravenously injecting one dose of Alloxan (70 mg/kg body weight) at day 0. Blood glucose (BG) concentrations in mice were measured twice a week for 4 weeks.

[1] = tested on: pre-existing insulin-producing β cells; test: Lineage tracing of pre-existing β cells in Ins1CreERT R26mT/mG mice, long-term low-dose GE; settings: non-diabetic Ins1CreERT R26mT/mG mice, TM 20 mg in five doses over 2 weeks
Protocol: 8 weeks old female Ins1^CreERTR26^mT/mG mice were first given I.P. injection of Tamoxifen™ every two days over a 2-week period to induce EGFP expression and label the pre-existing β cells. Thereafter, mice were induced to develop diabetes with Alloxan, and mice with medium or high hyperglycemia were treated with GE or PBS control. At the end of the experiments, the pancreases were harvested and stained for insulin and EGFP, and merged staining was also shown. Nuclei were labeled by DAPI. The percentage of EGFP^+Ins^+ cells amongst total Insulin^+ cells was calculated. Normal non-diabetic mice were used as a control for checking EGFP labeling efficiency.
(§1) 8-week-old female mice were I.V. injected with β cell toxin Alloxan (Sigma) at 70 mg/kg body weight. Tail vein blood glucose was measured daily or twice a week with Precision Xtra Glucose Meter (Abbott Diabetes Care Inc.) with a maximum reading of 500 mg/dL Tamoxifen (TM, Sigma) was prepared at 20 mg/mL in corn oil (Sigma). […]
Percentage of EGFP^+Sox9^+ cells was determined by the number of EGFP^+Sox9^+ cells divided by the total number of Sox9^+ cells. Cells were counted in ten random fields of view of a tissue section. […] To quantify Sox9/EGFP^+Ins^+ cells among ductal tubes, all Sox9/EGFP^+ ductal cells co-expressing insulin in ducts were counted on a section. […] Average count of each mouse was calculated. […]

[2] = tested on: Sox9+ pancreatic ductal cells; test: Lineage tracing of Sox9+ ductal cells in Sox9CreERT2 R26mT/mG mice, long-term low-dose GE (islets); settings: Sox9CreERT2 R26mT/mG C57BL/6 mice, TM 20 mg in five doses over 2 weeks
Protocol: 8 weeks old female Sox9^CreERT2 R26^mT/mG mice were first injected with Tamoxifen™ to label the Sox9/EGFP^+ cells, then the mice were induced to develop diabetes and treated with PBS or GE and monitored as described in FIG. 2A. At the end of experiments, pancreases were stained for Insulin and EGFP, and merged staining was also shown.
as §1
Percentage of EGFP^+Sox9^+ cells was determined by the number of EGFP^+Sox9^+ cells divided by the total number of Sox9^+ cells. Cells were counted in ten random fields of view of a tissue section. To quantify the number of lineage-labeled Insulin^+ cells, all Insulin^+ cells and Ins/EGFP^+Ins^+ cells on a section were counted, and then the percentage of Ins/EGFP^+Ins^+ cells amongst total Insulin^+ cells was determined. To quantify the number of lineage-labeled Insulin^+ cells arising from Sox9^+ cells, all Insulin^+ cells and Sox9/EGFP^+Ins^+ cells on a section were counted, and then the percentage of Sox9/EGFP^+Ins^+ cells among total Insulin^+ cells was determined. […] Average count of each mouse was calculated. […]

Structure (SMILES) | Mouse No. with high hyperglycemia (BG ≥ 450 mg/dL) (C57BL/6 mice) | Mouse No. with medium hyperglycemia (300 ≤ BG < 450 mg/dL) (C57BL/6 mice) | Mouse No. with mild hyperglycemia (BG < 300 mg/dL) (C57BL/6 mice) | Percentage of mice with high hyperglycemia (BG ≥ 450 mg/dL) (C57BL/6 mice) | Percentage of mice with medium hyperglycemia (300 ≤ BG < 450 mg/dL) (C57BL/6 mice) | Percentage of mice with mild hyperglycemia (BG < 300 mg/dL) (C57BL/6 mice) | Pre-existing β cells in the islets labeled with EGFP [1] | Pancreatic Sox9-expression ductal epithelial cells labeled with EGFP [2]
O=C1NC(=O)C(=O)C(=O)N1 [Alloxan] | 83 | 101 | 38 | 38% | 45% | 17% |  | 
CC/C(=C(\c1ccccc1)c1ccc(OCCN(C)C)cc1)c1ccccc1 [TM, Tamoxifen] |  |  |  |  |  |  | more than 90% | over 90%
